Holding throughout (conditions): Compound concentration 1000.0 nM
The target of test [1] is Serine/threonine-protein kinase PAK 6 (Homo sapiens) (UniProt Q9NQU5).
Test [2] concerns the target Ribosomal protein S6 kinase beta-1 (Homo sapiens) (UniProt P23443).
Test [3] concerns the target T1, Serine/threonine-protein kinase Sgk1 (Homo sapiens) (UniProt O00141).
T1 sequence (whole entry): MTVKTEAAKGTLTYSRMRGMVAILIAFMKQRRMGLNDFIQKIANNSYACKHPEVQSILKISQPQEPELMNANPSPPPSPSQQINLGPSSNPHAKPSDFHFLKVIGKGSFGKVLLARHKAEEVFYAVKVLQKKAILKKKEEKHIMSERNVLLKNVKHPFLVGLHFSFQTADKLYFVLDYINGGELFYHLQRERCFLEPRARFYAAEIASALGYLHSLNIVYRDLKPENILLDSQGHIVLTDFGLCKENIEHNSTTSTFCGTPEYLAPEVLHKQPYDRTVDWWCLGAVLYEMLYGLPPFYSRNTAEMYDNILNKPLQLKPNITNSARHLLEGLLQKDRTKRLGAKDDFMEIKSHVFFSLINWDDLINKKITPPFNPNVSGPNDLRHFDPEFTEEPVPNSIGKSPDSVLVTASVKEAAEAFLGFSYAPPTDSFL

Test [4] concerns Phosphatidylinositol 4,5-bisphosphate 3-kinase catalytic subunit alpha isoform (Homo sapiens), P42336 [C420R].
Test [5] concerns Tyrosine-protein kinase ABL1 (Homo sapiens), P00519 [F317L].
For test [6], the target named is Activin receptor type-2A (Homo sapiens) (UniProt P27037).
The target of test [7] is Tyrosine-protein kinase SYK (Homo sapiens) (UniProt P43405).
In test [8] the target is Leukocyte tyrosine kinase receptor (Homo sapiens) (UniProt P29376).
The target of test [9] is Serine/threonine-protein kinase 10 (Homo sapiens) (UniProt O94804).
In test [10] the target is T2, Muscle, skeletal receptor tyrosine-protein kinase (Homo sapiens) (UniProt O15146).
T2 sequence (whole entry): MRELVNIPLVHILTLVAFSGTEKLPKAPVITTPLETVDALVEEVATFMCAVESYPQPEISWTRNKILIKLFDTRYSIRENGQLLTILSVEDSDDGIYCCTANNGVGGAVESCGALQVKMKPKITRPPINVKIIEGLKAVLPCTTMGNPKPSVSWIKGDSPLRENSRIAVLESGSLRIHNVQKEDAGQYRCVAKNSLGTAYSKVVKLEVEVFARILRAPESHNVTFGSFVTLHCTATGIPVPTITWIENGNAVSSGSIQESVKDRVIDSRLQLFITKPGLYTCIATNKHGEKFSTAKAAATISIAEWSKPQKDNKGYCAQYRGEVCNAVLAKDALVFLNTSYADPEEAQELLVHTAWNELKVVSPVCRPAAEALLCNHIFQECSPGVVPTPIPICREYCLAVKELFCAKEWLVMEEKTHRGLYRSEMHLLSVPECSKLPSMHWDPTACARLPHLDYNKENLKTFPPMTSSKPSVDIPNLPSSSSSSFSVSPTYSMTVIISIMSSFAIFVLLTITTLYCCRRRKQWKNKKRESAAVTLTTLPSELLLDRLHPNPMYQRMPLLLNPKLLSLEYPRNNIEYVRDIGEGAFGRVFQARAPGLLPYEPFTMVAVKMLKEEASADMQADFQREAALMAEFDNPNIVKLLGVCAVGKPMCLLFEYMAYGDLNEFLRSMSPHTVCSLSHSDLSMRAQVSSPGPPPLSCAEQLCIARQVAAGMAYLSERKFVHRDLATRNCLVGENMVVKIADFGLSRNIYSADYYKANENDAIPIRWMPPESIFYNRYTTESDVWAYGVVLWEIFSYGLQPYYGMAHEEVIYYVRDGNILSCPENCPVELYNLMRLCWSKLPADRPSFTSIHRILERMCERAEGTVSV

Test [11] concerns the target Cyclin-dependent kinase 5 (Homo sapiens) (UniProt Q00535).
Test [12] deals with Serine/threonine-protein kinase RIO3 (Homo sapiens) (UniProt O14730).
For test [13], the target named is Vascular endothelial growth factor receptor 3 (Homo sapiens) (UniProt P35916).
Test [14] has as its target Mitotic checkpoint serine/threonine-protein kinase BUB1 (Homo sapiens) (UniProt O43683).
Test [15] concerns the target Bone morphogenetic protein receptor type-1A (Homo sapiens) (UniProt P36894).
For test [16], the target named is Serine/threonine-protein kinase SIK3 (Homo sapiens) (UniProt Q9Y2K2).
Sequence of Serine/threonine-protein kinase SIK3 (Homo sapiens) (Q9Y2K2 whole entry, looked up): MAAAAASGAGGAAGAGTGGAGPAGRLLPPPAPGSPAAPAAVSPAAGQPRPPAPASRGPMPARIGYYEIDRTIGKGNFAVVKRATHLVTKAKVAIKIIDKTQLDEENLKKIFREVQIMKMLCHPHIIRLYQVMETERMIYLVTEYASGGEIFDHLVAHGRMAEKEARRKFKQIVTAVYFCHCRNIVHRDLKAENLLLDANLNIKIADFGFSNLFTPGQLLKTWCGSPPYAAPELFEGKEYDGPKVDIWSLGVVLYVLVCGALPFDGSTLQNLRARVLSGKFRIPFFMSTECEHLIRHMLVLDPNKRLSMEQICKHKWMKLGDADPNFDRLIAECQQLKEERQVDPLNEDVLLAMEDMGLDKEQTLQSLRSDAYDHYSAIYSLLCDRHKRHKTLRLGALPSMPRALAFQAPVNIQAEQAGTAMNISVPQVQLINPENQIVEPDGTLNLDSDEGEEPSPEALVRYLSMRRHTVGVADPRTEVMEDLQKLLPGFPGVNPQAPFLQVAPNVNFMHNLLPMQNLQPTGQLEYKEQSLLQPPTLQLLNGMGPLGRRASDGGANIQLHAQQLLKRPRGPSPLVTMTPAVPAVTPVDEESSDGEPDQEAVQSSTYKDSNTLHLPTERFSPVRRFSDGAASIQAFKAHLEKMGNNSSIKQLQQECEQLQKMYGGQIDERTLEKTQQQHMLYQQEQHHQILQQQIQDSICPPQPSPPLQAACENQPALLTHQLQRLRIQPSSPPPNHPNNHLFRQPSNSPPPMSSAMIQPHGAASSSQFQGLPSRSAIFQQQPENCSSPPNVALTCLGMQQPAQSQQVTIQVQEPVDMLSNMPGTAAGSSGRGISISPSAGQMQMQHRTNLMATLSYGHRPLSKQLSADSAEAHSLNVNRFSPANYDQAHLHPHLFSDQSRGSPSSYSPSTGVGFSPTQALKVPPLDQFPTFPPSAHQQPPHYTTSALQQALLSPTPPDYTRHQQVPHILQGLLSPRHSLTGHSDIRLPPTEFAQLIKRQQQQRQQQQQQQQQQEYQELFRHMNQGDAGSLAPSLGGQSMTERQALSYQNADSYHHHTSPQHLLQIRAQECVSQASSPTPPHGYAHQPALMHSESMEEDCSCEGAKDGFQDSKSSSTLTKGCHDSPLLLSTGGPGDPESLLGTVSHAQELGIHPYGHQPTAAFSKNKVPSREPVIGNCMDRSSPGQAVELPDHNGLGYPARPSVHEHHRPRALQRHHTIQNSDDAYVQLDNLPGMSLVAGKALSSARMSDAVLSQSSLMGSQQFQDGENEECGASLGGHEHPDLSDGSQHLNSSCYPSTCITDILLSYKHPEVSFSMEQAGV

Sequence of Ribosomal protein S6 kinase beta-1 (Homo sapiens) (P23443 whole entry, looked up): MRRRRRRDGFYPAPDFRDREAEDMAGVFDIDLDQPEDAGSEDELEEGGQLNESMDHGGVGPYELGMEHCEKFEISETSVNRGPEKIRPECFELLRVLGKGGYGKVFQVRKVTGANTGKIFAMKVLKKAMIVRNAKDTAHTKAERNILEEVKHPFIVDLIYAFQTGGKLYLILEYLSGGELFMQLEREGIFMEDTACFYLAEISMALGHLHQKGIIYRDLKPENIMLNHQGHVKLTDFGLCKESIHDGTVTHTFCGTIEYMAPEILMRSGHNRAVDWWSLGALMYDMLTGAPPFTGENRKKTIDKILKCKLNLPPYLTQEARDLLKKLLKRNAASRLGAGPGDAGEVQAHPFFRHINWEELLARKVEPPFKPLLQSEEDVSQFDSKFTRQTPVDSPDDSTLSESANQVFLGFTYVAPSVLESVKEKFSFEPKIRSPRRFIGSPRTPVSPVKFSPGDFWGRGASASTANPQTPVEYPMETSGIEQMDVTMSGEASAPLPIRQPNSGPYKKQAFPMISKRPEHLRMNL
Sequence of Serine/threonine-protein kinase RIO3 (Homo sapiens) (O14730 whole entry): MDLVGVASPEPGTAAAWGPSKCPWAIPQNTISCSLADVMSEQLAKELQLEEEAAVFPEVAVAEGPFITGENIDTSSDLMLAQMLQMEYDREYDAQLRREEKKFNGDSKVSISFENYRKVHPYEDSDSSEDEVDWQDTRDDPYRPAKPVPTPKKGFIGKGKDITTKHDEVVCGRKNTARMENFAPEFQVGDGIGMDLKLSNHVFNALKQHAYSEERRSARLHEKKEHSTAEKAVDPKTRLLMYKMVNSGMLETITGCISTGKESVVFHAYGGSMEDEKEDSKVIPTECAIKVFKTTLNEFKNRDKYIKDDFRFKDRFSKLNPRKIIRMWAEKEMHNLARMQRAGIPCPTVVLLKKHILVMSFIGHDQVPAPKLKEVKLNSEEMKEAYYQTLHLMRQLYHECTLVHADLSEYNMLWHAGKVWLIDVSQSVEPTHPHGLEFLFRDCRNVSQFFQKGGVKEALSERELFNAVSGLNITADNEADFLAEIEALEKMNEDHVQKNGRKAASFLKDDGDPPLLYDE
Sequence of Serine/threonine-protein kinase 10 (Homo sapiens) (O94804 whole entry, looked up): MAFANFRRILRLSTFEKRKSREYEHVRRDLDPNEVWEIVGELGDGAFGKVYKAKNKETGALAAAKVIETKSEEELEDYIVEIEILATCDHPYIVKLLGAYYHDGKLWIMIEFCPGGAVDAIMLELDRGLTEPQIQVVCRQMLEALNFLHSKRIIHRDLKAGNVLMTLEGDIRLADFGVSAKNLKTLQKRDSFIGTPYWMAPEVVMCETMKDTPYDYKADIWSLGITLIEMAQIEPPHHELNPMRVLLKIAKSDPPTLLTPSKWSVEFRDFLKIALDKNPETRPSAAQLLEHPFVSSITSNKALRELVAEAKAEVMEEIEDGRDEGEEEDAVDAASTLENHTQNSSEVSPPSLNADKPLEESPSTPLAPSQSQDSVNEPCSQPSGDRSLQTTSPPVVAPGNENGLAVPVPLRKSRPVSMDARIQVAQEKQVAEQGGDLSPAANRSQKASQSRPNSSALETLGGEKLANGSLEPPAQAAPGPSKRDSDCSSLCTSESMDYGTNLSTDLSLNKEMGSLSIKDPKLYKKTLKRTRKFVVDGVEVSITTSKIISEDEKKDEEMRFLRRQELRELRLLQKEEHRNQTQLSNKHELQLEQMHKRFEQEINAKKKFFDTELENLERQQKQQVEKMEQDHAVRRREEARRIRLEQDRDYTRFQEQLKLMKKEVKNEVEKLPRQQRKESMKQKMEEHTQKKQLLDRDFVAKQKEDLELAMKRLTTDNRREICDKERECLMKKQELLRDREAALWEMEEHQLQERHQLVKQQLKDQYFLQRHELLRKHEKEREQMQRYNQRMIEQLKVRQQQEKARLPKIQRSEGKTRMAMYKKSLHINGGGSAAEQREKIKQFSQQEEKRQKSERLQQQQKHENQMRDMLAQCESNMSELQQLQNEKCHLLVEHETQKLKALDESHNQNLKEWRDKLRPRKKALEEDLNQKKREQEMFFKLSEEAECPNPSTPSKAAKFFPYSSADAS
Sequence of Serine/threonine-protein kinase PAK 6 (Homo sapiens) (Q9NQU5 whole entry, looked up): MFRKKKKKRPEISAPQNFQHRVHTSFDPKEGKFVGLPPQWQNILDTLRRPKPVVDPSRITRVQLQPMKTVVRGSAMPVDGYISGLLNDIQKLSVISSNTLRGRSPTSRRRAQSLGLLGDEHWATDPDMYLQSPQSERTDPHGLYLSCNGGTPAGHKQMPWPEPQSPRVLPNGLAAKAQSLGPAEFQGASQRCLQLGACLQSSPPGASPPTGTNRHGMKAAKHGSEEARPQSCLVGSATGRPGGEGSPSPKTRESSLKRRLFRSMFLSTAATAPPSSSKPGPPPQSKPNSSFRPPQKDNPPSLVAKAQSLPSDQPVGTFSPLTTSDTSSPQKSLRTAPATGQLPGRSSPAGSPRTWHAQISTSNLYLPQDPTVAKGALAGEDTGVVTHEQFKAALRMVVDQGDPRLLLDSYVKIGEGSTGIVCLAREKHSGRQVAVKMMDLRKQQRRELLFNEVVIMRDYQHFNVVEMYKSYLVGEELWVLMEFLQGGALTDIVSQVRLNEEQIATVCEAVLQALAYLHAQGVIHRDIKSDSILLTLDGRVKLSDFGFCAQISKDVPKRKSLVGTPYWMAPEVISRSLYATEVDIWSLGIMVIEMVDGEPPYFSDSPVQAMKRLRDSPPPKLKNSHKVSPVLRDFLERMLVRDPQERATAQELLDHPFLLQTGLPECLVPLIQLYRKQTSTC
Sequence of Mitotic checkpoint serine/threonine-protein kinase BUB1 (Homo sapiens) (O43683 whole entry, looked up): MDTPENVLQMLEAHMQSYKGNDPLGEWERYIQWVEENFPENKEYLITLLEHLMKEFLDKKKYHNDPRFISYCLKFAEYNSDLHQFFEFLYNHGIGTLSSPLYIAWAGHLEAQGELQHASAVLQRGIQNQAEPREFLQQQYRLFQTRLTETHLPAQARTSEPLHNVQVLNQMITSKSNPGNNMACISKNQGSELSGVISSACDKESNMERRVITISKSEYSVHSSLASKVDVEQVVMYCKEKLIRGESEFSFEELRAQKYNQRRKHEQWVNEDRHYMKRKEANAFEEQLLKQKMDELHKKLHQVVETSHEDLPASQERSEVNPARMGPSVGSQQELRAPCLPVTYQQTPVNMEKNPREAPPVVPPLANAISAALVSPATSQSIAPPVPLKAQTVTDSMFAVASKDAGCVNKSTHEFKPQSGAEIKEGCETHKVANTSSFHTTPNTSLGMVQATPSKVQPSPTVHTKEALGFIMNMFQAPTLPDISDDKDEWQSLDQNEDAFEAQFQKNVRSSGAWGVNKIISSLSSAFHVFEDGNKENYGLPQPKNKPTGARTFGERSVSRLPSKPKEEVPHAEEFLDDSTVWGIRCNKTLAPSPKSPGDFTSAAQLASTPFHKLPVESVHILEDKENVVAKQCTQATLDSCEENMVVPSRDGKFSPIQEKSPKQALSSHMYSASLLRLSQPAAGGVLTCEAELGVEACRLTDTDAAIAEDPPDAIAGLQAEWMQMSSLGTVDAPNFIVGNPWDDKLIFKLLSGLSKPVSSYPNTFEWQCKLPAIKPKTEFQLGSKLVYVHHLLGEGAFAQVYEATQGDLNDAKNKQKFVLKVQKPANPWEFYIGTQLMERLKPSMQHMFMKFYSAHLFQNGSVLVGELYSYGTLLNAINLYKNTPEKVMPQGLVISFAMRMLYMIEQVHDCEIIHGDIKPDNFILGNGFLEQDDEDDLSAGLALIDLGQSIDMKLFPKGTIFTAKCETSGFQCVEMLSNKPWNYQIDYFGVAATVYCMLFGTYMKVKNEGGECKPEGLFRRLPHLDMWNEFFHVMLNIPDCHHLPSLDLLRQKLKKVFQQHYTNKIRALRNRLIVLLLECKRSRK

As for `CC1=C(C#N)C(c2ccc3c(c2)c(NC(=O)c2ccccc2C)nn3C)C(C#N)=C(C)N1` [BAY-974], the residual activity (in general, the share of the control activity or signal that is left under treatment) is 100% in test [1]; 74% in test [2]; 89% in [3]; 74% in [4]; 91% in [5]; 97% in [6]. Also, the residual activity was 100% in test [7]; 70% in test [8]; 68% in test [9]; 98% in [10]; 87% in [11]; 87% in test [12]. Besides, the residual activity in test [13] was 100%; in test [14], 74%; in test [15] it was 100%; in [16] it was 81%.

Take `CCc1ccccc1C(=O)Nc1n[nH]c2c(C)c(F)c(C3C(C#N)=C(C)N(C)C(C)=C3C#N)cc12` [BAY-3827]: the residual activity in [1] was 93%; in test [2] it was 80%; in [3], 100%; in test [4], 100%; in test [5] it was 89%; in test [6], 100%. Besides, the residual activity in test [7] is 100%; in [8], 94%; in test [9] it was 100%; in test [10], 83%; in test [11] it was 89%; in test [12], 45%. The residual activity in [13] is 85%; in [14], 100%; in test [15] it was 87%; in [16], 74%.

Source of the values: ChEMBL document CHEMBL4507319 (2021).
